The structures appear in SMILES notation. pEC50, pIC50: −log10 of the molar value.

Assay [1] concerns WSUDLCL2. Description: cells. The format is functional, cell-based. The note with it: Homo sapiens.
For assay [2], the target named is Histone-lysine N-methyltransferase EZH2 (Homo sapiens, UniProt Q15910, Y641F).
In assay [3] the target is T1, Histone-lysine N-methyltransferase EZH2 (Homo sapiens, UniProt Q15910).
The target in assay [4] is T1, Histone-lysine N-methyltransferase EZH2. The source holds these as a separate data set.
The target of assay [5] is Histone-lysine N-methyltransferase EZH2 (Homo sapiens, UniProt Q15910, Y641N).
Histone-lysine N-methyltransferase EZH2 (Homo sapiens, UniProt Q15910, Y641N), sequence (Q15910 whole entry Y641N): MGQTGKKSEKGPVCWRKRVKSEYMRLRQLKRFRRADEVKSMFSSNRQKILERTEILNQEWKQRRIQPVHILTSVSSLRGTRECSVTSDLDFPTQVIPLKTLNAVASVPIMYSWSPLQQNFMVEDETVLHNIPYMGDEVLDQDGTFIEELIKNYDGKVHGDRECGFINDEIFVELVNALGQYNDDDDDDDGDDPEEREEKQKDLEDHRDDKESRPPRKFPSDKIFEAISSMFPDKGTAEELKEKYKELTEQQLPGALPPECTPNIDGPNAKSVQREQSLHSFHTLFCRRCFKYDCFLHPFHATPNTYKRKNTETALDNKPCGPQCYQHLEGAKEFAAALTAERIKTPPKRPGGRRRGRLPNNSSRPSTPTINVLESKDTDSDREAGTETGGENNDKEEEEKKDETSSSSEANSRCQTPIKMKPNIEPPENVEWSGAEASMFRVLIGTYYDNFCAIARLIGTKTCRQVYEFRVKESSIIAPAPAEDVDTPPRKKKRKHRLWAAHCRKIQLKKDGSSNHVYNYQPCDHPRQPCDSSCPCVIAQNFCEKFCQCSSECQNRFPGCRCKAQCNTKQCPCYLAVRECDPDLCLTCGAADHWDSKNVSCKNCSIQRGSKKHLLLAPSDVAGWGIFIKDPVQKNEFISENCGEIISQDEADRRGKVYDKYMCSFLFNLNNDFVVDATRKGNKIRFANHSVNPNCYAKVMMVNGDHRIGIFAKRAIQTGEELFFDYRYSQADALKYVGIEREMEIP
Assay [6] has as its system KARPAS-422. Nature of the assay: cells. The format is functional. Particulars: Homo sapiens.
Assay [7] deals with HeLa. Nature of the assay: cells. It counts as functional, cell-based. Particulars: Homo sapiens.
The target of assay [8] is T2, Protein cereblon/Histone-lysine N-methyltransferase EZH2 (Homo sapiens, UniProt Q15910+Q96SW2). The format is cell-based, OCILY7.
T2 sequence (Q15910 whole entry): as the sequence (Q15910 whole entry Y641N) above, with N641Y counted along it
T2 sequence (Q96SW2 whole entry): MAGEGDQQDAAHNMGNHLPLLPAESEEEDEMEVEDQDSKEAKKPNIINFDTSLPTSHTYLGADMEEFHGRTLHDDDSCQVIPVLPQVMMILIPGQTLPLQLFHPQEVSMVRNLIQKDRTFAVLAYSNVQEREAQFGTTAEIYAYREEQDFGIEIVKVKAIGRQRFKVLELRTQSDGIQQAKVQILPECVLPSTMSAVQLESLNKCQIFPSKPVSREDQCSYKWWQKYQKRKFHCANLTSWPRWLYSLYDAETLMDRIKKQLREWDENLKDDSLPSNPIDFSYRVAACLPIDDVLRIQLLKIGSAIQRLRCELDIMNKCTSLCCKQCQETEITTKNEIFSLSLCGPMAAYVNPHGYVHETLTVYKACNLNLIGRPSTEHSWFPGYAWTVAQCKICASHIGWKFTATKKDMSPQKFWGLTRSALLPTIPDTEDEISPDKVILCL
In assay [9] the target is T2, Protein cereblon/Histone-lysine N-methyltransferase EZH2. The format is cell-based, DOHH-2.
Assay [10] relates to Pfeiffer. Nature of the assay: cells. The format is functional, cell-based. Particulars: Homo sapiens.
For assay [11], the system named is SU-DHL-6. Description: cells. The format is functional, cell-based. The note with it: Homo sapiens.
In assay [12] the target is T1, Histone-lysine N-methyltransferase EZH2. This is another data set of the same source.
For assay [13], the system named is PC-3. Nature of the assay: cells. It counts as functional, cell-based. The note with it: Homo sapiens, PC-3, 24 h.
Assay [14] has as its system MCF7. Nature of the assay: cells. The format is functional, cell-based. Particulars: Homo sapiens, MCF7, 24 h.
Assay [15] has as its system HepG2. Nature of the assay: cells. Particulars: Homo sapiens, HepG2, 24 h. The format is functional, cell-based.
Assay [16] has as its system KARPAS-422. Description: cells. It counts as functional, cell-based. The note with it: Homo sapiens.
Assay [17] has as its target T1, Histone-lysine N-methyltransferase EZH2. This is another data set of the same source.
Assay [18] has as its system MDA-MB-231. Nature of the assay: cells. It counts as functional, cell-based. The note with it: Homo sapiens, MDA-MB-231, 72 h.

T1 sequence (Q15910 whole entry): as the sequence (Q15910 whole entry Y641N) above, with N641Y counted along it
Histone-lysine N-methyltransferase EZH2 (Homo sapiens, UniProt Q15910, Y641F), sequence (Q15910 whole entry Y641F): as the sequence (Q15910 whole entry Y641N) above, with N641F counted along it

`CCN(c1cc(C#CCN2CCOCC2)cc(C(=O)NCc2c(C)cc(C)[nH]c2=O)c1C)[C@H]1CC[C@H](N(C)CCOC)CC1`: in assay [1], the pIC50 was 6.41. Consider `CCN(c1cc(C#CC2CCN(C)CC2)cc(C(=O)NCc2c(C)cc(C)[nH]c2=O)c1C)C1CCOCC1`, for which the negative logarithm of the IC50 (pIC50) in [2] is 8.08. Consider `COc1cc(C)[nH]c(=O)c1CNC(=O)c1c(C)n([C@H](C)C2CCN(CC(C)(F)F)CC2)c2ccccc12`, for which the pIC50 in assay [3] and in assay [2] was > 9.00 in each case. In [4], `CCN(c1cc(Br)cc(C(=O)NCc2c[nH]c(C)cc2=O)c1C)[C@H]1CC[C@H](N(C)C)CC1` gave a pIC50 of 7.40. On the same count and under the same terms, as for `CCN(c1cc(-c2ccc(CN3CCOCC3)cc2)cc(C(=O)NCc2c(Cl)cc(C)c[n+]2[O-])c1C)C1CCOCC1`, the figure is > 7.00. As to `C=CCC1(S(=O)(=O)N2CC(C)c3c(C(=O)NCc4c(C)cc(C)[nH]c4=O)cc(-c4ccc(N5CCN(C)CC5)nc4)cc32)CC1` (stereo unspecified), the pIC50 in assay [5] and in assay [2] was 5.82 each time. With `CSc1cc(C)[nH]c(=O)c1CN1CCc2c(Cl)c3c(c(C)c2C1=O)O[C@@](C)([C@H]1CC[C@H](N(C)C)CC1)O3`, the GI50 in [6] is 5.7 nM. Also, in assay [7], the pEC50 was 9.07. Turning to `C=CC(=O)Nc1nn(C(C)c2ccccc2)c(C)c1C(=O)NCc1c(C)cc(C)[nH]c1=O` (stereo unspecified), the pIC50 in assay [4] was 7.19.

As to `C=CCC1(S(=O)(=O)N2CCc3c(C(=O)NCc4c(C)cc(C)[nH]c4=O)cc(-c4ccc(N5CCN(C)CC5)nc4)cc32)CC1`, the pIC50 in assay [5] and in [2] was 5.59 each time. With `CCCc1cc(C)[nH]c(=O)c1CNC(=O)c1cc(-c2ccc(N3CCNCC3)cc2)cc2c1ccc(=O)n2C(CC)CC`, the pIC50 in assay [3] is 7.96; in assay [2], 8.05. Regarding `C=CCC1(S(=O)(=O)n2cc(C)c3c(C(=O)NCc4c(OC)cc(C)[nH]c4=O)cc(-c4ccc(N5CCN(C)CC5)nc4)cc32)CC1`, the pIC50 in assay [5] was 4.57; in [2], 8.30. On to `CCN(c1cc(-c2ccc(CN3CCN(C(=O)CCCCCNc4cccc5c4C(=O)N(C4CCC(=O)NC4=O)C5=O)CC3)cc2)cc(C(=O)NCc2c(C)cc(C)[nH]c2=O)c1C)C1CCOCC1` (stereo unspecified), for which the pIC50 in assay [8] and in [9] was 7.00 in each case. Turning to `CCN(c1cc(-c2ccc(CN3CCOCC3)cc2)cc(C(=O)NCc2c3c(c(C)[nH]c2=O)CCCCCC3)c1C)C1CCOCC1`, the pIC50 in assay [10] is 4.68; in [11], < 4.52. Consider `CCc1c(C(=O)NCc2c(C)cc(C)[nH]c2=O)cc2c(cnn2C)c1N(CC)[C@H]1CC[C@H](N2CC(OC)C2)CC1`, for which the negative-log IC50 (pIC50) in [10] is 7.12. In [6], `CSc1cc(C)[nH]c(=O)c1CNC(=O)c1cc(Cl)c2c(c1C)O[C@@](C)([C@H]1CC[C@H](N(C)C)CC1)O2` returned a GI50 of 4 nM. The same compound showed a pEC50 in assay [7] of 9.29. In turn, `Cc1cc(C)c(CNC(=O)c2cnn(C(C)C)c2C)c(=O)[nH]1` had a pIC50 in assay [12] of 3.47. For `CCC(C)n1cc(C)c2c(C(=O)NCC3=C(O)NN(CC)C3C)cc(-c3ccc(N4CCNCC4)nc3)cc21` (stereo unspecified), the pIC50 was 6.64 in [3] and 5.83 in assay [2]. On to `CCN(c1cc(-c2ccc(CN3CCOCC3)cc2)cc(C(=O)NCc2c3c(c(C)[nH]c2=O)CCCC3)c1C)C1CCOCC1`, for which the pIC50 in [10] was 4.71; in assay [11], 4.70. In the case of `CCN(c1cc(-c2ccc(CN3CCOCC3)cc2)cc(C(=O)NCc2c3c(c(C)[nH]c2=O)CCCCC3)c1C)C1CCOCC1`, the pIC50 was 4.57 in assay [10] and < 4.52 in assay [11]. With `Cc1cc(C)c(CN2CCc3c(Br)c4c(c(C)c3C2=O)OC(C)([C@H]2CC[C@H](N(C)C)CC2)O4)c(=O)[nH]1` (stereo partly specified), the GI50 turned out to be 0.21 nM in assay [10] and 1.2 nM in [6]. As to `COc1ccc(C2SCCC(=O)N2Nc2nc3cc(Cl)c(Cl)cc3[nH]2)cc1` (stereo unspecified), the pIC50 was 4.14 in [13], 4.11 in assay [14] and 4.16 in assay [15]. The compound `Cc1cc(C)c(CNC(=O)c2cc(-c3ccc(N4CCN(CCOCCC(=O)Nc5cccc6c5C(=O)N(C5CCC(=O)NC5=O)C6=O)CC4)nc3)c3c(cnn3C(C)C)c2)c(=O)[nH]1` (stereo unspecified) had a pIC50 in [4] of 8.15.

For `CC1=CCOc2c(Br)cc(C(=O)NCc3c(C)cc(C)[nH]c3=O)cc2C1`, the pIC50 in assay [4] is < 6.00. Same read-out and setting: as for `CCCc1cc(C)[nH]c(=O)c1CNC(=O)c1cc(-c2ccc(N3CCOCC3)nc2)c2ccn(C(C)C)c2c1C`, the figure is 11.00; as for `Cc1cc(C)c(CNC(=O)c2cc3c(c(-c4ccc(N5CCNCC5)cc4)c2)OC(C)(C)C3)c(=O)[nH]1`, > 6.30. Regarding `CCCc1cc(C)[nH]c(=O)c1CNC(=O)c1cc(-c2ccc(N3CCNCC3)nc2)cc2c([C@H](C)CC)ncn12`, the pIC50 in [3] is 7.12; in assay [2], 8.09. Take `CCN(c1cc(-c2cnc(N3CCN(C)CC3)nc2)cc2c(NCc3c(C)cc(C)[nH]c3=O)nccc12)[C@H]1CC[C@H](N(C)C)CC1`: the pIC50 was 6.60 in [10] and > 8.30 in assay [2]. In the case of `C=CCC1(S(=O)(=O)n2nc(C)c3c(C(=O)NCc4c(C)cc(C)[nH]c4=O)cc(-c4ccc(N5CCN(C)CC5)nc4)cc32)CC1`, the results for the pIC50 in [5] and in assay [2] were 5.55 and 6.23, respectively. Take `O=C1CCSC(c2ccc([N+](=O)[O-])cc2)N1Nc1nc2ccccc2[nH]1` (stereo unspecified): the results for the negative logarithm of the IC50 (pIC50) in [13], in assay [14] and in [15] were 4.19, 4.32 and 4.25, respectively. As for `[2H]C([2H])([2H])Sc1cc(C)[nH]c(=O)c1CNC(=O)c1c(C)n([C@H](C)C2CCC(OC)CC2)c2ccc(-c3cnn(C)c3)cc12` (stereo partly specified), the pIC50 in assay [4] is 9.40; in [11], 7.15. Turning to `Cc1cc2c(c(=O)[nH]1)CNC(=O)c1cc(Cl)cc3c1c(cn3C(C)C)/C=C/CC2`, the pIC50 in assay [4] was 7.40. Same read-out and setting: to `CCCc1cc(C)n(C)c(=O)c1CN(C)C(=O)c1cc(-c2ccc(N3CCN(C(C)C)CC3)nc2)cc2c1CNN2C(C)C` belongs 4.89; to `CCN(c1cc(Cl)cc(C(=O)NCc2c[nH]c(C)cc2=O)c1C)[C@H]1CC[C@H](N(C)C)CC1`, 8.52.

In the case of `O=C1CCSC(c2ccc(Cl)cc2)N1Nc1nc2ccccc2[nH]1` (stereo unspecified), the pIC50 in assay [13] is 4.17; in assay [14], 4.13; in assay [15] it was 4.27. `Cc1cc(C)c(CNC(=O)c2cc(Br)c3c(c2C)O[C@@](C)([C@H]2CC[C@H](N(C)C)CC2)O3)c(=O)[nH]1` returned a GI50 in assay [6] of 4 nM. For the compound `C=CC(=O)Nc1nn(Cc2ccccc2)c(C)c1C(=O)NCc1c(C)cc(C)[nH]c1=O`, the pIC50 in assay [4] was 5.28.

`CCN(c1cc(C(=O)NCc2c(OC)cc(C)[nH]c2=O)nc2c(-c3ccnc(N(C)C)c3)cnn12)C1CCOCC1`: the pIC50 in assay [2] is ≥ 7.00. In turn, `C[C@H](C(=O)NC1COC1)c1cnc(NC[C@H]2CC[C@H](Nc3ccc4ccnc(Cl)c4n3)CC2)nc1` gave a pIC50 in assay [16] of 9.52. Turning to `CCN(c1cc(C(=O)NCc2c(OC)cc(C)[nH]c2=O)nc2c(-c3ccnc(NC)c3)cnn12)C1CCN(CC(F)(F)F)CC1`, the pIC50 in [2] is ≥ 7.00. As for `CCN(c1cc(Cl)cc2c1C/C=C/CCc1cc(C)[nH]c(=O)c1CNC2=O)C1CCC(F)(F)CC1`, in assay [4], the pIC50 was 7.80.

Consider `C=CC(=O)Nc1nn(Cc2ccc(-c3ccccc3)cc2)c(C)c1C(=O)NCc1c(C)cc(C)[nH]c1=O`, for which the pIC50 in [4] is 6.96. Against the preceding compound, the pIC50 is 0.84 log units lower. `Cc1cc(C)c(CNC(=O)c2cc(-c3ccc(CN4CCN(C)CC4)cc3)cc3c2OCCN3C2CCCCC2)c(=O)[nH]1`: the negative logarithm of the IC50 (pIC50) in assay [10] is 5.38. With `Cc1cc(C)c(CNC(=O)c2cnn(-c3ccccc3)c2)c(=O)[nH]1`, the pIC50 in assay [12] was < 3.40. On to `[2H]C([2H])(NC(=O)c1c(C)n([C@H](C)C2CCC(OC)CC2)c2ccccc12)c1c(SC)cc(C)[nH]c1=O` (stereo partly specified), for which the pIC50 in [4] is 9.27; in [11], 8.00. Regarding `COc1ccc(C2SCCC(=O)N2Nc2nc3cc(C)c(C)cc3[nH]2)cc1` (stereo unspecified), the pIC50 is 4.18 in assay [13], 4.22 in assay [14] and 4.17 in assay [15]. For `Cc1cc(-c2ccc(N3CCN(C)CC3)nc2)c2ccc(C(=O)NCc3c(OC(C)C)cc(C)[nH]c3=O)c(C)c2n1`, the pIC50 in assay [3] is 8.89; in assay [2], 7.89. Take `COc1cc(C)[nH]c(=O)c1CN1CCn2ccc3cc(-c4c(C)noc4C)c(Cl)c(c32)C1=O`: the values for the pIC50 in [16] and in [1] were 7.28 and 8.42, respectively. Consider `Cc1cc(Cl)c(CNC(=O)c2cc(Cl)c3c(c2C)OC(C)(C2CCC(N4CC(OC5CC5)C4)CC2)O3)c(=O)[nH]1` (stereo unspecified), for which it took 5 nM to inhibit growth in assay [6] by half (GI50). This compound showed a pEC50 in [7] of 9.28. On to `COC1CN([C@H]2CC[C@H]([C@@H](C)c3sc4c(c3C)C(=O)N(Cc3c(C)cc(C)[nH]c3=O)CCC4)CC2)C1`, for which the pIC50 in assay [17] is 8.58; in [3], 11.01; in assay [2] it was 9.04. Take `O=C1CCSC(c2ccccc2Cl)N1Nc1nc2ccccc2[nH]1` (stereo unspecified): the pIC50 in assay [13] was 5.03; in assay [14], 4.69; in assay [15], 4.87.

In assay [17], `CCN(c1cc(-c2ccc(CN3CCOCC3)cc2)cc(C(=O)NCC2C(=O)NC(C)c3cccc(F)c32)c1C)C1CCOCC1` (stereo unspecified) gave a pIC50 of 6.30. With `COc1cc2nc(N3CCCN(C)CC3)nc(NC3CCN(Cc4ccccc4)CC3)c2cc1OC`, the pIC50 in assay [18] is 5.02. The compound `Cc1cc(C)c(CNC(=O)c2cc(Cl)c3c(c2C)O[C@@](C)([C@H]2CC[C@H](N(C)C)CC2)O3)c(=O)[nH]1` [VALEMETOSTAT] displayed a GI50 in assay [6] of 4.8 nM.

The record behind these values is ChEMBL document CHEMBL5120864, “Targeting Enhancer of Zeste Homolog 2 for the Treatment of Hematological Malignancies and Solid Tumors: Candidate Structure-Activity Relationships Insights and Evolution Prospects” (J Med Chem, 2022).
